How the values were obtained:
[1] = European Patent 13,376; cited from earlier work
[2] = system: Normal human epidermal keratinocytes (NHEK); assay: Inhibition of NHEK proliferation, BrdU incorporation (in vitro DNA synthesis); assay type: cell-based; details: 18-24 hours; for inhibition at 100 µM: 10^-4 M; for inhibition at 10 µM: 10^-5 M
Description: Cells: Normal human epidermal keratinocytes (NHEK, Clonetics Corp., San Diego, Calif.).
Labelling Reagent: Aqueous solution of 5-bromo-2'-deoxyuridine and 5-fluoro-2'-deoxyuridine (Amersham Corp., II).
Peroxidase-anti-mouse Immunoglobulin (Ig from pooled sheep antisera, Amersham Corp., II).
Peroxidase substrate: ABTS (2,2'-azino-di-(3-ethyl-benzthiazoline sulphonate)! Amersham Corp., II).
Compounds: Compounds are dissolved in absolute ethanol (final concentration≤0.1%). Various drug concentrations are prepared in thymidine free keratinocyte growth medium (KGM without hydrocortisone, Clonetics Corp., Calif.) in the presence of BrdU.
Dynatech MR 7000 microplate reader with 410 nm filter.
Keratinocytes are seeded into 96-well flat bottom (6.4 mm diameter) culture dishes at 5,000 cells/well. The cells are allowed to grow (2-3days) and then dosed with various concentrations of compounds prepared in KGM without thymidine, without hydrocortisone in the presence of BrdU (1:200). After 18-24 hours at 37° C., 5% CO2, the cells are washed with warm PBS and fixed with acetic acid/ethanol for 30 minutes at room temperature. After washing the wells with PBS/0.1% Tween-20, the remaining electrostatic sites on the polystyrene plates are blocked by 3% BSA in PBS/0.1% Tween-20. Anti-bromodeoxyuridine antibody solution with nuclease for denaturing DNA is added to each well and allowed to incubate for 2 hours at 37° C., 5% CO2. The plates were again washed with PBS/0.1% Tween-20 and then incubated at room temperature with peroxidase lined anti-mouse immunoglobulin (1:600). After washing off the second antibody, 1 mM ABTS substrate solution is added to all wells until the desired color intensity (green) is achieved. The color development is stopped by the addition of a Stopping Agent. The absorbance is then measured at 410 nm with a microplate reader using cells in wells not exposed to BrdU as blanks.
The intensity of the color reaction is proportional to the BrdU incorporated by proliferating cells. The amount of BrdU incorporated in treated cells in wells is compared to those of untreated controls as follows: [formula]

[3] = Acute toxicity after intraperitoneal administration, NMRI mouse; details: in vivo, ip, 3 weeks, Litchfield and Wilcox
Description: The acute toxicity after intraperitoneal administration of the test substances was determined with NMRI mice (20 to 25 g) and SD rats (120 to 195 g). The test substance was suspended in a 1% strength sodium carboxymethylcellulose solution. The different dosages of the test substance were administered to the mice in a volume of 10 ml/kg of body weight and to the rats in a volume of 5 ml/kg of body weight. Per dosage, 10 animals were used. After 3 weeks, the acute toxicity was determined by the method of Litchfield and Wilcox.

[4] = system: psoriasis patients; details: cited from earlier work

Molecule | anti-inflammatory property [1] | inhibition at 100 µM [2] [%] | inhibition at 10 µM [2] [%] | inhibition at 1 µM ([2]; 10^-6 M) [%] | IC50 [2] [µM] | LD50 at 504 h [3] [mg/kg] | most limiting side effect ([4]; in vivo, po) | side effects ([4]; in vivo, po) | success rate in severe psoriasis ([4]; oral, patients with severe psoriasis)
Cc1oncc1C(=O)Nc1ccc(C(F)(F)F)cc1 [Compound 1, N-(4-trifluoromethylphenyl)-5-methylisoxazole-4-carboxamide] | anti-inflammatory | 87 | 22 | 12 | 18 | – | – | – | –
C/C(O)=C(\C#N)C(=O)Nc1ccc(C(F)(F)F)cc1 [Compound 2, N-(4-trifluoromethylphenyl)-2-cyano-3-hydroxycrotonamide] | – | 84 | 49 | – | 15.5 | 150 | – | – | –
cyclosporine A | – | – | – | – | – | – | kidney dysfunction | a number of side effects, most of which are transient and not serious | high success rate

Source: patent publication US5504084A, “Pharmaceutical for the treatment of skin disorders” (priority 1994, dated 1996)
